Results published in ChEMBL document CHEMBL1144127, “Montadial A, a cytotoxic metabolite from Bondarzewia montana” (J Nat Prod, 1999).
Active and inactive are the calls of the source.

What was measured:
L1210 = experiment: Cytotoxicity against mouse L1210 cells at 10 ug/mL; type: functional, cell-based
HL-60 = experiment: Cytotoxicity against human HL-60 cells at 5 ug/mL; type: functional, cell-based
Setaria italica = experiment: Phytotoxicity against Setaria italica at 50 ug/disk; type: functional, organism-based

Measured: Activity

C/C(C=O)=C\Cc1cc(C=O)cc(O)c1O
active: all assays above
